Assay results from ChEMBL document CHEMBL1201862, “PubChem BioAssay data set” (2004).
Active and inactive are the calls of the source.

Key:
[1] = M. tuberculosis H37Rv growth inhibitors, H37Rv strain (AID 1626); type: functional
cells = type: functional
CAAX prenyl protease 2 = molecular target: T1, CAAX prenyl protease 2 (Saccharomyces cerevisiae S288c, UniProt Q03530); type: biochemical
T1 sequence (Q03530 whole entry): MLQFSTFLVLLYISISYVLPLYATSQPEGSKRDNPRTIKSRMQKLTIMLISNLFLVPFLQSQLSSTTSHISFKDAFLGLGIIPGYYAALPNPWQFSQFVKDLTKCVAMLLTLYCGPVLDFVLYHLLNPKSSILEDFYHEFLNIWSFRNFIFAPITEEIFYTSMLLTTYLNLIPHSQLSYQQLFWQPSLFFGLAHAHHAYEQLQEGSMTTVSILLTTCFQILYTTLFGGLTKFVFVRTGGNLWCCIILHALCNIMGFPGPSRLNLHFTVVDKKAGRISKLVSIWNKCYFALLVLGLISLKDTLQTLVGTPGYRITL

Estrogen receptor = molecular target: T2, Estrogen receptor (Homo sapiens, UniProt P03372);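 further: potency for inhibiting coactivator peptide recruitment to the receptor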
T2 sequence (P03372 whole entry): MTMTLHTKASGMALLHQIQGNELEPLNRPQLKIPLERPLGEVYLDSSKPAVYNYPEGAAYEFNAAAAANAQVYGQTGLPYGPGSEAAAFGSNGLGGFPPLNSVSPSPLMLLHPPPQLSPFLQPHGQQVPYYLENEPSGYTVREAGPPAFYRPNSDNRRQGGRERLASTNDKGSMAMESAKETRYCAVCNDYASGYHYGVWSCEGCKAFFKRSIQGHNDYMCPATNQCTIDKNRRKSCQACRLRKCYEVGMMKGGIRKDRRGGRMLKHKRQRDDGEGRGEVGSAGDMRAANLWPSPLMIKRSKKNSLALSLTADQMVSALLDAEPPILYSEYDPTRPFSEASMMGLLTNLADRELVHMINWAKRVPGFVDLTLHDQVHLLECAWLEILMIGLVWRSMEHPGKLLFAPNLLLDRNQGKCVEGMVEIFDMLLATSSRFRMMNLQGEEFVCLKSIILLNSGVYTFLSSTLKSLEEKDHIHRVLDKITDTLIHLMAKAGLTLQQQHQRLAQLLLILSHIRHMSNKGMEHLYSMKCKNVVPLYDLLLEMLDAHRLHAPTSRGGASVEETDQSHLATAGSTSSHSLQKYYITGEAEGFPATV

Ion channel NompC = Ion channel NompC (Danio rerio, UniProt Q7T1G6); assay: Fluorescence counterscreen assay for TRPML3 agonists: dose response cell-based high-throughput screening assay to identify agonists of the transient receptor potential channel N1 (TRPN1). [Related pubchem assays: 1526, 1424, 1448 ]; type: functional
Mucolipin-3 = molecular target: T3, Mucolipin-3 (Homo sapiens, UniProt Q8TDD5); assay: Dose response cell-based high-throughput screening assay for agonists of the transient receptor potential channel ML3 (TRPML3). [Related pubchem assays: 1526, 1424, 1448 ]; type: functional
T3 sequence (Q8TDD5 whole entry): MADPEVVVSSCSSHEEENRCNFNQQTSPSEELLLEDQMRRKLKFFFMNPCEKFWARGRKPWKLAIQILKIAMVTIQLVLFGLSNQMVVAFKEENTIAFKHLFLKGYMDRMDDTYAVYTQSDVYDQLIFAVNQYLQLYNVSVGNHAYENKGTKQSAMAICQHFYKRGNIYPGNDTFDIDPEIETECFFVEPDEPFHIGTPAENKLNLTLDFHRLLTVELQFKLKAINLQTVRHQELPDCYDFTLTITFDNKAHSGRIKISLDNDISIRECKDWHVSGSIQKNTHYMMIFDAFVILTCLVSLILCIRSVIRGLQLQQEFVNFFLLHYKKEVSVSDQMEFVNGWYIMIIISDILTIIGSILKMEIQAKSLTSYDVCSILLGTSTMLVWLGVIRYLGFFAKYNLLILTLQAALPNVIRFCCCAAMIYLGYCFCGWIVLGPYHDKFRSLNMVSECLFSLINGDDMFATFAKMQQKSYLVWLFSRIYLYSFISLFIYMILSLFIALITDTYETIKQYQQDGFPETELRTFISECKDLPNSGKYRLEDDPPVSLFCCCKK

[2] = molecular target: Eukaryotic translation initiation factor 4H (Homo sapiens, UniProt Q15056); assay: inhibitors of translation initiation factor eIF4H – SAR follow-up (AID 435011); type: functional
[3] = molecular target: Polyadenylate-binding protein 1 (Homo sapiens, UniProt P11940); assay: PABP inhibition in translation initiation, SAR follow-up (AID 435018); type: functional
[4] = molecular target: Induced myeloid leukemia cell differentiation protein Mcl-1 (Homo sapiens, UniProt Q07820); type: functional
[5] = Luminescence Cell-Based Dose Retest to Confirm Inhibitors of Cancer Stem Cells. [Related pubchem assays (depositor defined):AID2717, AID2721]; type: functional; conditions: Homo sapiens

Ion channel NompC, sequence (Q7T1G6 whole entry): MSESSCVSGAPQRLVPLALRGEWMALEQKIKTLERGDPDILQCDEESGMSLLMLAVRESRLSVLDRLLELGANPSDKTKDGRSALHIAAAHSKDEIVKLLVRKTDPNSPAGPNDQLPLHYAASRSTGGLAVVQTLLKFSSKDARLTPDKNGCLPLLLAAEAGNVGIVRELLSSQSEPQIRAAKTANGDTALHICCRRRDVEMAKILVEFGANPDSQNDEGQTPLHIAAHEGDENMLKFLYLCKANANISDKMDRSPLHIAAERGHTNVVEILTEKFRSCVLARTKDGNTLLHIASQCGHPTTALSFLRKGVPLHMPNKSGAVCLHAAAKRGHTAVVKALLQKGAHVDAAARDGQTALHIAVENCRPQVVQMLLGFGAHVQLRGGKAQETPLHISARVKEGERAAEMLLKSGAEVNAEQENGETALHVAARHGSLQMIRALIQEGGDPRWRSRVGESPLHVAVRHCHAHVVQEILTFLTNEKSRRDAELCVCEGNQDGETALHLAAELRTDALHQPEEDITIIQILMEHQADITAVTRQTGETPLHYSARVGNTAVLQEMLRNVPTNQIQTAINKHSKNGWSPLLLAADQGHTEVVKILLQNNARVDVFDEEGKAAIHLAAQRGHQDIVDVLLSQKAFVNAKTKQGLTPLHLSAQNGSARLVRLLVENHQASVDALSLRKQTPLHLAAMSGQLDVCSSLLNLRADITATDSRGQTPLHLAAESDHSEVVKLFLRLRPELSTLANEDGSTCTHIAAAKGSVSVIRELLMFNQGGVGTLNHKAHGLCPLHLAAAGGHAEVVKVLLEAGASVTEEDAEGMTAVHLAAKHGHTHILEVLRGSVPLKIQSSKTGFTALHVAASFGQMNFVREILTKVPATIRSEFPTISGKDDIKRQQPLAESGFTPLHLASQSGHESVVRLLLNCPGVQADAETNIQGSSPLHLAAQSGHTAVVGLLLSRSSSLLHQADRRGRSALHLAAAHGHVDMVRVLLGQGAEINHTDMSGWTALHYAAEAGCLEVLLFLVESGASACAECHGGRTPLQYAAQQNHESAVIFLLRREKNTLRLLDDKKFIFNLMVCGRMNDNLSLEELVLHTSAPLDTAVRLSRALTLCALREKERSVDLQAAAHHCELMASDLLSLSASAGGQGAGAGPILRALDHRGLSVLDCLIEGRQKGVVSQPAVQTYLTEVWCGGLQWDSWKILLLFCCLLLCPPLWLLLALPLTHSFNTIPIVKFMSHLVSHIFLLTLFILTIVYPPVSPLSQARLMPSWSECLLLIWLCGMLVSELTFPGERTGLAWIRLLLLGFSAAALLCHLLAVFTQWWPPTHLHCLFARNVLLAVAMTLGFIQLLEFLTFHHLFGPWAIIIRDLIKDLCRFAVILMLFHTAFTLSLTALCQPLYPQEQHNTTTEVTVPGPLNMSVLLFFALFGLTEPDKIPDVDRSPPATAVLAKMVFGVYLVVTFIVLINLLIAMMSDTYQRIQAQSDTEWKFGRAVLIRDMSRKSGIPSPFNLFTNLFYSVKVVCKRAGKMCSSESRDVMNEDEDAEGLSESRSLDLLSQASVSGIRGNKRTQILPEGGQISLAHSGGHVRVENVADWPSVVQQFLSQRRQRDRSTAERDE
Polyadenylate-binding protein 1, sequence (P11940 whole entry): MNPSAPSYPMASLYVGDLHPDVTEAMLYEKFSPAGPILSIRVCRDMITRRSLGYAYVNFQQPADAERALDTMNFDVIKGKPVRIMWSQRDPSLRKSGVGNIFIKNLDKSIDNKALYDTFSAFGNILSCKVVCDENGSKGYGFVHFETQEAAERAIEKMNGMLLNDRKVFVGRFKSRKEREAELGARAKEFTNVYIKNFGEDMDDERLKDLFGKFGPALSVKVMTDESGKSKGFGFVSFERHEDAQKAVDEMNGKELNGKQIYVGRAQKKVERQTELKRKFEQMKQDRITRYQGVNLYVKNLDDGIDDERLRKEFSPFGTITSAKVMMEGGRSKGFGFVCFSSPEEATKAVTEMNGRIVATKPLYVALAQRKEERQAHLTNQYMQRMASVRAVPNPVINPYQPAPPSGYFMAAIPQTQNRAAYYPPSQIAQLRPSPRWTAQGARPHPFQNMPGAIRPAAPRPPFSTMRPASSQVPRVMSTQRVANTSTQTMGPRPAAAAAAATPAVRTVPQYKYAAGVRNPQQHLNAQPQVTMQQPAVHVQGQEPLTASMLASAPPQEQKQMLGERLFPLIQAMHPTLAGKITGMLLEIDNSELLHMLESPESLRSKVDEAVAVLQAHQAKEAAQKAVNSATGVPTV
Induced myeloid leukemia cell differentiation protein Mcl-1, sequence (Q07820 whole entry): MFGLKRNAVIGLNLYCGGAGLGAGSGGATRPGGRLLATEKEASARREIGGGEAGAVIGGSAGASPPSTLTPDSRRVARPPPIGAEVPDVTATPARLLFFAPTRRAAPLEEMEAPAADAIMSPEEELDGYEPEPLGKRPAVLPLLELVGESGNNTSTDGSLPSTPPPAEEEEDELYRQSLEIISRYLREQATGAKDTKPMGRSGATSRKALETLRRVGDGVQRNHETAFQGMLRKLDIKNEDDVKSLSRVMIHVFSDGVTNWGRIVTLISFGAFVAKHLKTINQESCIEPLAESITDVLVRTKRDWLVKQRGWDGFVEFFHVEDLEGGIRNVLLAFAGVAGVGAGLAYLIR

In the case of `CCOC(=O)c1ccc(-n2c(CCC(=O)O)ccc2-c2cccs2)cc1`, the IC50 [1] is reported as > 100 µM (active) and the IC50 (cells) is reported as 36.2 µM (active).

For `Cc1ccc(OCCn2c3ccccc3n3nc(C)c(=O)nc23)cc1`, the AC50 (CAAX prenyl protease 2) was 6.85 µM (active).

For `CCOc1cccc(-c2nnc3sc(-c4cc(OC)c(OC)c(OC)c4)nn23)c1`, the IC50 (Estrogen receptor) was > 50 µM (not active).

For `CCC1CCCCN1S(=O)(=O)c1ccccc1[N+](=O)[O-]` (configuration not stated), the EC50 (Ion channel NompC) was > 29.9 µM (not active) and the EC50 (Mucolipin-3) was 6.06 µM (active).

With `COc1ccc(NC(=O)C2CCCN2C(=O)Oc2ccccc2)cc1` (configuration not stated) the IC50 [2] was > 100 µM (inactive) and the IC50 [3] was > 100 µM (inactive).

With `CCC1CCCCN1S(=O)(=O)c1ccc(S(=O)(=O)N(Cc2ccccn2)CC2CCCO2)cc1` (configuration not stated) the IC50 [4] was < 0.4 µM (not active), the EC50 (Ion channel NompC) was > 29.9 µM (not active) and the EC50 (Mucolipin-3) was 1.81 µM (active). The AC50 [5] was 2.4 µM (active).
